Data published in EP0250264A1, “Irreversible dopamine-Beta-hydroxylase inhibitors” (SMITHKLINE BECKMAN CORPORATION, priority 1986, dated 1987).

How the values were obtained:
[1] = system: Spontaneously hypertensive rats; assay: Mean arterial blood pressure in spontaneously hypertensive rats, monitored with indwelling tail artery cannulae; format: in vivo; conditions: 100 mg/kg intraperitoneally; for blood pressure reduction remaining at 260 minutes: 260 minutes after administration, b38 compares to vehicle-treated controls
Description: Spontaneously hypertensive rats were dosed with a suspension or solution of ß-ethynylbenzeneethanamine- methane sulfonate at a dose of 100 mg/kg intraperitoneally, and mean arterial blood pressure was monitored for 260 minutes using indwelling cannulae positioned in the tail arteries.
Blood pressure also was monitored in spontaneously hypertensive rats given 100 mg/kg intraperitoneally B-ethynyl-3-hydroxybenzeneethanamine hydrochloride.

[2] = molecular target: T1, DBH (Homo sapiens, UniProt P09172); assay: DBH inhibition assay, conversion of tyramine to octopamine (enzyme inhibition kinetic study); format: biochemical; conditions: enzyme incubated for up to 50 minutes with 10, 20, 40, or 80 µM concentrations
T1 sequence (P09172 1-617): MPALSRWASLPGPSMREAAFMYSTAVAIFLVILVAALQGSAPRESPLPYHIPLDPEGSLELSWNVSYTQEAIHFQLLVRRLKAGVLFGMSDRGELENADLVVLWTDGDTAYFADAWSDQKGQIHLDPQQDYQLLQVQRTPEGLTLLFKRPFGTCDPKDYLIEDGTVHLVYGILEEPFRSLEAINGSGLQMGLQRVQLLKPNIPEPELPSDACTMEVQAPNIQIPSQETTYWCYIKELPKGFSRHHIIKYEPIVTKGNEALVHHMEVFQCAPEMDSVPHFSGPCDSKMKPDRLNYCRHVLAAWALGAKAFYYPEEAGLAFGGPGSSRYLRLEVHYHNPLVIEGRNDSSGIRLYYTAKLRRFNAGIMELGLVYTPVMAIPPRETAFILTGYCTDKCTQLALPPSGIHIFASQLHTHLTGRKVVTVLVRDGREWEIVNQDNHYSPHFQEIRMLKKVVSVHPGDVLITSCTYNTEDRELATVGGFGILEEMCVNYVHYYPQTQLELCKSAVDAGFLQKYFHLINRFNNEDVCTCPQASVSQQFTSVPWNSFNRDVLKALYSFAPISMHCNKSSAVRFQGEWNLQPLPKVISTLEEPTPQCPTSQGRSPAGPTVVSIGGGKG
Description: DBH activity was assayed by a standard procedure for measuring the conversion of tyramine to octopamine in the presence of DBH. J.J. Pisano, et al., Biochim. Biophy. Acta, 43, 566-68 (1960). Octopamine was assayed following sodium periodate oxidation to p-hydroxybenzaldehyde by measuring spectrophotometric absorbance at 330 nm.
To measure DBH inhibition, the enzyme was incubated for up to 50 minutes with 10, 20, 40, or 80 µM concentrations of ß-ethynyl-4-hydroxybenzeneethanamine.

[3] = molecular target: T1, DBH; conditions: cited from earlier work

C#CC(CN)c1cccc(O)c1 (stereo not shown) [ß-Ethynyl-3-Hydrpxybenzeneethanamine]
blood pressure reduction remaining at 260 minutes [1]: approximately ten
blood pressure reductions ([1]; forty minutes following compound administration): thirty

C#CC(CN)c1ccc(O)cc1.Cl (stereo not shown) [ß-ethynyl-4-hydroxybenzeneethanamine, ß-Ethynyl-4-Hydroxybenzeneethanamine Hydrochloride]
DBH inhibition [2]: concentration- dependent DBH inhibition
enzyme inhibition, dependence on time [2]: time-dependent

C#CC(CN)c1ccccc1.CS(=O)(=O)O (stereo not shown) [ß-ethynylbenzeneethanamine- methane sulfonate]
blood pressure reduction remaining at 260 minutes [1]: approximately twenty
reductions in blood pressure ([1]; twenty to forty minutes following administration): approximately twenty

phenylpicolinic acid
inhibitory activity relative to fusaric acid [3]: twice the inhibitory activity of fusaric acid
